Data set [1] has as its system SOD1^G37R mice. Description: EDL muscle fatigue protocol and 30 min recovery. The data set is classed as in vivo, mouse. The method, then:
In addition to the force generated, a muscle is also characterised by its resistance to fatigue. For instance, fast-twitch muscles composed of a majority of fast fatigable motor units like the EDL, is their great fatigability. In ALS, alteration at the type of innervation (from fast to slow twitch) and in the properties of muscles themselves alter the fatigue properties, rendering them more resistant. […] We used a fatigue stimulation protocol, followed by a 30 min recovery period (FIG. 6A). […] However, we found no difference in the rate of fatigue of muscle contractions generated by motor nerve stimulation (FIG. 6C; Dari N=8, Placebo N=8; p>0.05, Repeated two-way ANOVA). […] There was no difference in the rate of recovery following the fatigue protocol between the darifenacin-treated mice and the placebo-treated ones (FIG. 6B-C; Dari N=8, Placebo N=8; p>0.05, Repeated two-way ANOVA).
Finally, we investigated the fatigue properties of the EDL muscle following darifenacin pre-onset treatment. As mentioned earlier, fast-twitch muscles like the EDL are very strong but are normally highly fatigable. However, in ALS, a gradual resistance to fatigue of fast-twitch muscles have been unraveled, following progression of disease pathogenesis. We used a fatigue stimulation protocol (180 trains at 120 Hz-300 ms), followed by a 30 min recovery period (see FIG. 6A) to investigate treatment impact on EDL fatigue properties. […] The strong resistance of the muscle to fatigue probably reflected the high rate of denervation of the EDL muscle at the symptomatic stage in both darifenacin-and placebo-treated mice.
Muscle fatigue: The fatigue protocol is illustrated in FIG. 6A. The fatigue protocol was adapted to each muscle owing to the differences in their intrinsic properties. For the EDL, fatigue was tested using a bout of 180 nerve stimulations for a duration of 300 ms, elicited at a frequency of 120 Hz. The rest period between each stimulation was 700 ms, for a total protocol duration of 3 min. Muscular stimulations were super-imposed to nerve stimulations every 10 stimulations (18 simultaneous nerve-muscle stimulations), to evaluate muscular reserve. The fatigue protocol for the SOL consisted of a bout of 300 nerve stimulations for 500 ms at 50 Hz, with a rest period of 600 ms between stimulations, for a total duration of 5 min 30. Muscular stimulations were super-imposed to nerve stimulations every 10 stimulations (30 simultaneous nerve-muscle stimulations).
Each fatigue protocol was followed by a 30 min recovery period during which muscular and neuromuscular contractile force were measured at the following latencies (after the end of the fatigue protocol): 5 s, 10 s, 15 s, 30 s, 45 sec, 1 min, 1.5 min, 2 min, 2.5 min, 5 min, 10 min, 20 min and 30 min.

For data set [2], the system named is SOD1^G37R mice. The data set is described as follows: EDL contractile force with muscle force transducer (force-frequency curve, contractile capacity ratio). In kind it is in vivo, mouse. The source says: To investigate this, we used a musde force transducer to measure the force generated by EDL muscles elicited by stimulation of the motor nerve and/or by the direct muscle stimulation (FIG. 5A). With this system, stimulation of the motor nerve at various frequencies elicits muscle contraction through NMJ efficacy, reflecting the strength of contractile fibers associated with innervated NMJs only. Muscle stimulation, on the contrary, depolarizes all muscle fibers and reflect maximal twitch force of all the muscle, independent of the innervation status.
These values represent respectively 55% and 30% of the WT mean twitch force value (FIG. 5B; Dari N=8, Placebo N=8; p<0.01, Repeated Two-way ANOVA). Contractile forces generated differed between the two groups from 70 Hz to 300 Hz (FIG. 5B; Dari N=8, Placebo N=8; p<0.05, Two-way ANOVA, Bonferroni post hoc test). […] This is indicative of the preservation of the fast-twitch properties of the EDL (FIG. 5C; Dari N=8, Placebo N=8; p<0.05 et p<0.01, unpaired t-tests at each frequency).
We next determined the proportion of the muscle capacity that is used by the neuromuscular system upon nerve stimulation. This was expressed as the contractile capacity ratio calculated as follow: […]
The EDL and SOL nerve-muscle preparations were attached vertically to a fixed force transducer (model 402 A-500 mN, Aurora Scientific Inc.) using surgical threads. The preparations were attached at the tendons level to the transducer at one extremity and to an adaptable hook at the opposite extremity. A platinum reference electrode was then juxtaposed ot the muscle, positioned near an extremity of the muscle, close to a tendon. To stimulate the muscle, a second platinum electrode was juxtaposed at the other extremity of the muscle. To elicit muscle contractions from motor nerve and neuromuscular activity, the tibial nerve (SOL) or the deep peroneal nerve (EDL) motor nerve was suctioned into an electrode made of PE tubing and filled with Ringer's solution. […] Neuromuscular contractile basal force responses were elicited by a single supra-maximal square-wave of 500 mV, 0.1 ms pulse imposed on the motor nerve. Muscle contractile basal force responses were elicited by square pulse stimulation of 15 V, 1 ms. Optimal muscle length was determined by gradually stretching the muscle until maximal contractile force output was attained.
Force-frequency curve: Nerve and muscle stimulations were performed to generate a standard force-frequency curve. Alternate nerve and muscle stimulations were performed at various frequencies (5 Hz, 10 Hz, 20 Hz, 30 Hz, 40 Hz, 50 Hz, 60 Hz, 70 Hz, 80 Hz, 90 Hz, 100 Hz, 120 Hz, 140 Hz, 160 Hz, 180 Hz, 200 Hz, 250 Hz and 300 Hz) and the force generated monitored. There was a 2-minute rest period between each stimulation.

Data set [3] concerns SOD1^G37R mice. Description: Rotarod acceleration protocol. In kind it is in vivo, mouse. The method, then: Third, the motor performance, balance and coordination, were measured using a standard acceleration protocol on the Rotarod (FIG. 8A), which is known to reveal ALS motor deficits as disease progresses.
Motor coordination, strength and balance were assessed using a rotarod (TSE Rotarod, TSE Systems Gmbh, Germany). Animals were placed onto a rotating wheel at a starting speed of 4 rpm, increasing to 40 rpm in 300 seconds. Mice had two attempts per session to remain on the rotarod during the acceleration protocol, and the longest latency to fall was counted.
A general note: The rotarod test checks motor coordination on a turning rod.

The test system of data set [4] is SOD1^G37R mice. The data set is described as follows: Survival cohort. The following applies: continuous treatment from disease onset (P450) until end stage; N=10.
The mark [5] stands for this setting: pre-onset treatment P400 until P520.

The values below come from patent US20240374563A1, “ANTICHOLINERGIC COMPOUNDS FOR USE IN TREATING NEUROMUSCULAR DISORDERS” (UNIVERSITY OF MONTRÉAL, priority 2022, published 2024).

As for `NC(=O)C(c1ccccc1)(c1ccccc1)[C@@H]1CCN(CCc2ccc3c(c2)CCO3)C1` [darifenacin], in the data set with SOD1^G37R mice [1] (setting [5]), the “rate of fatigue generated by muscle stimulation vs placebo” value was “no difference” and the “rate of recovery following the fatigue protocol vs placebo” value was “comparable”. For the same compound, in the data set on SOD1^G37R mice [1] (treatment from disease onset), the “rate of fatigue of contractions generated by motor nerve stimulation vs placebo” value was “no difference” and the “rate of recovery following the fatigue protocol vs placebo” value is “no difference”. The “EDL fatigue on direct muscle stimulation” value in the data set with SOD1^G37R mice [1] (treatment from disease onset, p<0.01 vs placebo) is “more typical for this type of fast twitch muscle”. The “peak EDL muscle force, nerve or muscle stimulation, vs placebo” value with SOD1^G37R mice [2] (5 Hz-300 Hz, pre-onset treatment P400 until P520, N=4) is reported as “no difference”. The “EDL twitch force, nerve stimulation” value in the data set with SOD1^G37R mice [2] (force-frequency protocol 5 Hz-300 Hz, treatment from disease onset, N=8) was found to be 138.0±9.1 mN. Besides, in the data set on SOD1^G37R mice [2] (nerve stimulation, treatment from disease onset), the “EDL twitch force as % of the WT mean twitch force value” was found to be 55%. Further, in the data set on SOD1^G37R mice [2] (pre-onset treatment from P400), the “animals discarded for early onset of forelimb paralysis, final stage at P490” value is listed as “two”. Further, in the data set on SOD1^G37R mice [3] (at P520 and P525, treatment from disease onset, N=22), the “Rotarod latency to fall vs placebo” value was “significantly higher score”. Moreover, the “share of group still able to stand for several seconds on the rotating rod” value with SOD1^G37R mice [3] (late symptomatic stage, data not shown) was “more than half”. In addition, in the data set on SOD1^G37R mice [4], the median lifespan came to 551 days.
